The values below come from ChEMBL document CHEMBL1201862, “PubChem BioAssay data set” (2004).

Some test systems named below: CAKI-1; COLO 205; DU-145; HL-60; HOP-62; Hs-578T; MDA-MB-231; MOLT-4; Malme-3M; NCI-H226; OVCAR-3; OVCAR-8; PC-3; RXF 393; SF-268; SK-OV-3; SN12C; SR; UACC-62; NCI-H522.
What all share (experiment): inhibition of tumour cell growth, NCI panel, 48 h

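Following 48 hours of exposure in 96-well plates, responses at five concentrations were used to interpolate endpoints linearly. At the GI50, growth is halved.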 Active and inactive are the calls of the source. Cut-off read from the data, not from the text of the source: active = GI50 up to about 1.1 µM and inactive = higher.

On to `CN(C)CC1CCC/C(=C\c2ccc(OC(=O)/C=C/c3ccccc3)cc2)C1=O` (stereo unspecified), for which the GI50 in the experiment with CAKI-1 is 1.82 µM (inactive); with COLO 205, 1.99 µM (inactive); in the experiment on DU-145, 2.47 µM (inactive); in the experiment with HL-60 it was 1.85 µM (inactive); with HOP-62 it was 3.48 µM (inactive); in the experiment with Hs-578T, 3.28 µM (inactive). The GI50 in the experiment with MDA-MB-231 was 2.73 µM (inactive); in the experiment on MOLT-4, 1.3 µM (inactive); in the experiment on Malme-3M, 2.2 µM (inactive); in the experiment on NCI-H226 it was 2.96 µM (inactive); in the experiment with OVCAR-3, 1.97 µM (inactive); in the experiment with OVCAR-8 it was 2 µM (inactive). Besides, the GI50 was 4.74 µM (inactive) in the experiment on PC-3; 1.93 µM (inactive) with RXF 393; 3.37 µM (inactive) in the experiment with SF-268; 24.2 µM (inactive) in the experiment with SK-OV-3; 2.01 µM (inactive) with SN12C; 0.796 µM (active) in the experiment on SR. In the experiment with UACC-62, the GI50 is 3.34 µM (inactive).

Turning to `Cc1sc(NC=C2C(=O)CC(C)(C)CC2=O)nc1-c1ccccc1`, the GI50 in the experiment on CAKI-1 is > 100 µM (inactive); in the experiment with COLO 205 it was > 100 µM (inactive); with DU-145, > 100 µM (inactive); in the experiment on HL-60, 2.17 µM (inactive); with HOP-62 it was > 100 µM (inactive); in the experiment on Hs-578T, > 100 µM (inactive). In addition, the GI50 with MDA-MB-231 was > 100 µM (inactive); in the experiment on MOLT-4, > 100 µM (inactive); with NCI-H226, > 100 µM (inactive); with NCI-H522 it was 80.5 µM (inactive); with OVCAR-3 it was > 100 µM (inactive); in the experiment with OVCAR-8 it was > 100 µM (inactive). For the same compound, the GI50 in the experiment on PC-3, in the experiment with RXF 393, with SF-268, with SK-OV-3, in the experiment with SN12C and with SR was > 100 µM (inactive) throughout. Also, the GI50 in the experiment with UACC-62 is > 100 µM (inactive).

For the compound `CNC(=S)/C(=N\Nc1[nH]cnc1C(N)=O)C(N)=S`, the GI50 with CAKI-1 is 1.71 µM (inactive); in the experiment with COLO 205 it was 4.57 µM (inactive); in the experiment on DU-145, 1.2 µM (inactive); with HOP-62 it was 19.2 µM (inactive); with Hs-578T it was 9.14 µM (inactive); with MDA-MB-231, 2.12 µM (inactive). Besides, the GI50 with MOLT-4 is 0.711 µM (active); in the experiment on Malme-3M it was 1.1 µM (active); with NCI-H226 it was 5.73 µM (inactive); in the experiment with NCI-H522, 10.9 µM (inactive); in the experiment on OVCAR-3 it was 6.43 µM (inactive); in the experiment with OVCAR-8, 1.11 µM (active). Also, the GI50 in the experiment with PC-3 is 5.52 µM (inactive); in the experiment with RXF 393, > 100 µM (inactive); in the experiment with SF-268, 3.18 µM (inactive); in the experiment on SK-OV-3 it was 1.51 µM (inactive); in the experiment on SN12C, 2.44 µM (inactive); with SR it was < 0.01 µM (active). Moreover, the GI50 in the experiment with UACC-62 is 3.22 µM (inactive).

For the compound `C[C@@H](c1ccccc1)n1c(N)c(C#N)c2ccc([N+](=O)[O-])cc2c1=O`, the GI50 in the experiment on CAKI-1 was 15.1 µM (inactive); in the experiment on COLO 205 it was 15 µM (inactive); in the experiment on DU-145, 15.9 µM (inactive); in the experiment with HL-60, 8.75 µM (inactive); in the experiment on Hs-578T it was 18.2 µM (inactive); in the experiment on MDA-MB-231, 14.9 µM (inactive). In addition, the GI50 with NCI-H226 was 1.68 µM (inactive); in the experiment with OVCAR-8, 12 µM (inactive); in the experiment on PC-3, > 100 µM (inactive); in the experiment with SF-268, 29.7 µM (inactive); with SN12C it was 12 µM (inactive); in the experiment with SR, 2.69 µM (inactive). Besides, in the experiment on UACC-62, the GI50 is 13.2 µM (inactive).

For the compound `O=C1OCCC[C@H]2O[C@@H](COCc3ccccc3)C[C@@H]12`, the GI50 in the experiment on CAKI-1, in the experiment on COLO 205, in the experiment with DU-145, with HL-60, with HOP-62 and in the experiment with Hs-578T was > 100 µM (inactive) throughout. In addition, the GI50 with MDA-MB-231, in the experiment with MOLT-4, in the experiment with NCI-H226, in the experiment with OVCAR-3, in the experiment with OVCAR-8 and with PC-3 was > 100 µM (inactive) throughout. Further, the GI50 with SF-268, with SK-OV-3, with SN12C, in the experiment on SR and in the experiment with UACC-62 was > 100 µM (inactive) in each case.

As for `CO[C@]12CC(=O)C3(C(C[C@H]4CC5CC[C@H]6C[C@@H](OC(C)=O)CC[C@]6(OC(C)=O)C5C[C@@]43C)C1)C1C[C@H]3[C@@H]4CC[C@H]5C[C@@H](OC(C)=O)CC[C@]5(OC(C)=O)[C@H]4CC[C@]3(C)C12` (stereo partly specified), the GI50 was > 100 µM (inactive) with CAKI-1; 40.5 µM (inactive) in the experiment with COLO 205; 70.3 µM (inactive) in the experiment with DU-145; > 100 µM (inactive) in the experiment with HOP-62; 71.4 µM (inactive) in the experiment with Hs-578T; > 100 µM (inactive) in the experiment with MDA-MB-231. For the same compound, the GI50 in the experiment with MOLT-4 was 51.1 µM (inactive); in the experiment with Malme-3M, > 100 µM (inactive); in the experiment with OVCAR-3, > 100 µM (inactive); in the experiment with OVCAR-8, 46 µM (inactive); in the experiment with PC-3 it was 50.8 µM (inactive); in the experiment on SF-268, > 100 µM (inactive). Moreover, the GI50 in the experiment on SK-OV-3 was > 100 µM (inactive); in the experiment on SN12C it was > 100 µM (inactive); with SR it was > 100 µM (inactive); in the experiment with UACC-62, 84.3 µM (inactive).

On to `CC1=C(C(N)=O)C(c2ccncc2)C(C#N)C(=O)N1` (stereo unspecified), for which the GI50 in the experiment with CAKI-1, in the experiment on COLO 205, in the experiment on DU-145, in the experiment with HL-60, in the experiment with HOP-62 and in the experiment on Hs-578T was > 100 µM (inactive) in each case. The GI50 in the experiment on MDA-MB-231, in the experiment with MOLT-4, with PC-3, in the experiment on RXF 393, in the experiment with SF-268 and with SK-OV-3 was > 100 µM (inactive) each time. Further, the GI50 with SR and with UACC-62 was > 100 µM (inactive) each time.

Take `COc1ccccc1C(O)[C@@H]1C[C@@H]2[C@H]3CC[C@@](C)([C@@H]2O1)C3(C)C` (stereo partly specified): the GI50 in the experiment with CAKI-1 was 23.8 µM (inactive); in the experiment with COLO 205, 19.1 µM (inactive); with DU-145, 22.1 µM (inactive); with HL-60 it was 20 µM (inactive); with HOP-62, 18.7 µM (inactive); with Hs-578T it was 14.7 µM (inactive). The GI50 in the experiment with MDA-MB-231 is 17.3 µM (inactive); in the experiment on MOLT-4, 15.4 µM (inactive); in the experiment on Malme-3M, 15 µM (inactive); in the experiment with NCI-H522, 17.4 µM (inactive); in the experiment with OVCAR-3 it was 17.1 µM (inactive); with OVCAR-8, 18.2 µM (inactive). Besides, the GI50 was 20.7 µM (inactive) in the experiment on PC-3; 17.4 µM (inactive) in the experiment on RXF 393; 22.9 µM (inactive) in the experiment with SF-268; 27.4 µM (inactive) in the experiment with SK-OV-3; 16.4 µM (inactive) with SN12C; 20.6 µM (inactive) in the experiment with SR. Besides, in the experiment with UACC-62, the GI50 is 16.6 µM (inactive).

As to `CC(C)(C)OC(=O)n1c(-c2ccccc2F)cc(=O)c2cc3c(cc21)OCO3`, the GI50 in the experiment on COLO 205 is 0.0942 µM (active); in the experiment on DU-145, 0.0451 µM (active); with HL-60 it was 0.0451 µM (active); with HOP-62, 0.0863 µM (active); in the experiment with Hs-578T, 0.0407 µM (active); in the experiment on MDA-MB-231, 3.68 µM (inactive). For the same compound, the GI50 with MOLT-4 is 0.106 µM (active); in the experiment with Malme-3M, 0.0526 µM (active); with NCI-H226, 0.0791 µM (active); in the experiment with NCI-H522, 0.0267 µM (active); with OVCAR-3, 0.03 µM (active); in the experiment on OVCAR-8, 0.0906 µM (active). Also, the GI50 in the experiment with PC-3 is 0.0391 µM (active); with SF-268, 0.191 µM (active); in the experiment on SK-OV-3 it was 0.12 µM (active); with SR, 0.0327 µM (active); in the experiment with UACC-62, 0.0588 µM (active).

For `Cc1ccc(NC(=S)NNC(=O)c2cc(-c3ccccc3)nc3ccccc23)cc1`, the GI50 is 18 µM (inactive) in the experiment with CAKI-1; 16 µM (inactive) in the experiment on COLO 205; 12.9 µM (inactive) in the experiment on DU-145; 13.2 µM (inactive) in the experiment with HOP-62; 17.4 µM (inactive) in the experiment on Hs-578T; 18.5 µM (inactive) in the experiment on MDA-MB-231. Further, the GI50 in the experiment with MOLT-4 is 14.3 µM (inactive); in the experiment with Malme-3M, 6.35 µM (inactive); with NCI-H226, 18.7 µM (inactive); in the experiment on NCI-H522, 14.7 µM (inactive); in the experiment with OVCAR-3, 7.89 µM (inactive); in the experiment on OVCAR-8, 18.3 µM (inactive). For the same compound, the GI50 in the experiment with PC-3 was 12 µM (inactive); in the experiment on RXF 393, 12.8 µM (inactive); in the experiment on SF-268, 15.8 µM (inactive); in the experiment on SK-OV-3 it was 16.5 µM (inactive); with SN12C it was 16.2 µM (inactive); in the experiment on SR it was 3.18 µM (inactive). For the same compound, in the experiment on UACC-62, the GI50 is 12.5 µM (inactive).

In the case of `CCOC(=O)NC(Nc1ccc(S(=O)(=O)Nc2ncccn2)cc1)(C(=O)OCC)C(F)(F)F` (stereo unspecified), the GI50 in the experiment on CAKI-1, in the experiment with COLO 205, in the experiment with DU-145, in the experiment with HL-60, in the experiment with HOP-62 and in the experiment on Hs-578T was > 100 µM (inactive) throughout. Moreover, the GI50 in the experiment on MDA-MB-231, in the experiment with MOLT-4, with Malme-3M, in the experiment with NCI-H226, in the experiment with NCI-H522 and with OVCAR-3 was > 100 µM (inactive) in each case. In addition, the GI50 in the experiment on OVCAR-8, in the experiment on PC-3, in the experiment with SF-268, in the experiment on SK-OV-3, in the experiment with SN12C and with SR was > 100 µM (inactive) throughout. For the same compound, in the experiment on UACC-62, the GI50 is > 100 µM (inactive).
